Test results published in EP2265599B1, “CRYSTAL FORM OF PHENYLAMINOPYRIMIDINE DERIVATIVE” (Natco Pharma Limited, priority 2008, dated 2009).

Tests used:
5310 cells = experiment: Western blot analysis for AKT, ERK and Pi3k, 5310; format: cell-based
Protocol: (§1) Western blot analysis of 4910, 5310 and U87 glioma cells and MDAMB231 and ZR71 breast cancer cells in the presence of specified concentrations of compounds were assessed as per standard protocols. Cells were treated with AN019, AN024 or Temozolomide at the specified concentrations. 24h after treatment, cells were collected and cell lysates extracted. Equal quantities of proteins were fractionated by SDS-PAGE. The fractionated proteins were blotted on to nylon membranes and immunoprobed for AKT, ERK and Pi3k. Breast cancer cell protein isolates were additionally immunoprobed for EGFR, ErbB1, ErbB2 and ErbB3.

[1] = test system: 4910 human glioma xenograft cells; experiment: Glioma radiation study, intracranially implanted 4910 cells; format: in vivo, Nude mice
Protocol: Nude mice were intracranially implanted with 4910 human glioma xenograft cells (1x10^6 cells). Ten days after implantation mice were treated with AN019, AN024 or temozolomide with or without radiation (5Gy/week). The experiment was terminated at day 40 post implantation.

ZR71 = experiment: Western blot analysis for AKT, ERK and Pi3k, ZR71; format: cell-based
Protocol: as §1

Baf3T315I = experiment: In vivo anti-leukemic activity, blast cell count in blood smears, Baf3T315I implanted nude mice; details: Imatinib 10mg/kg, AN019 20mg/kg, AN024 20mg/kg, oral gavage or ip from day 15; up to day 42
Excerpt: Blood smears were obtained via the tail vein or via the femoral vein every 6th day and blast cells counted and graphically represented.
Abdominal swelling and decrease in activity was monitored daily, blood smear taken via the tail vein or the femoral vein every 6th day and H&E stained as per standard protocols. 42 days after implantation, mice were sacrificed and spleens harvested.
Nude mice were intraperitoneally implanted with Baf3 mutant cells (wt, T315I, M351T or E255K). […] Blood was drawn from the femoral vein or tail vein every 6th day and blast cell count determined and graphically represented.

U87 = experiment: Matrigel invasion assay (modified Boyden chamber), U87; format: cell-based; details: cells treated 48 h
Protocol: (§2) The in vitro invasiveness of 4910, 5310 and U87 glioma cells and MDAMB231 and ZR71 breast cancer cells in the presence of specified concentrations of compounds were assessed using a modified Boyden chamber assay. Cells were treated with these compounds for 48 h. 1x10^6 cells were suspended in 600µl of serum-free medium supplemented with 0.2% BSA and placed in the upper compartment of the transwell chambers (Coming Costar Fischer Scientific Cat #07-200-158, Pittsburgh PA) coated with Matrigel (0.7 mg/ml). The lower compartment of the chamber was filled with 200 µl of serum medium and the cells were allowed to migrate for 24 h. After incubation, the cells were fixed and stained with Hema-3 and quantified as previously described (Mohanam et al. 1993). The migrated cells were imaged microscopically to determine the reduction in invasiveness induced by the compounds of this invention.
(§3) The in vitro invasiveness of 4910, 5310 and U87 glioma cells and MDAMB231 and ZR71 breast cancer cells in the presence of specified concentrations of compounds were assessed using a modified Boyden chamber assay. Cells were treated with these compounds for 48 h.

MDA-MB-231 = experiment: Matrigel invasion assay (modified Boyden chamber), MDA-MB-231; format: cell-based; details: cells treated 48 h
Protocol: as §2, §3

K562 cells = experiment: Anti-CML activity in nude mice implanted with K562 cells (leukemia growth index, LGI)
Protocol: To determine anti-CML activity of compounds of this invention K562 cells were obtained from ATCC and nude mice were implanted with these cells. […] Drug treatment was initiated 15 days post implantation and for 48 days with daily ip injections of 10mg/kg. Blood was drawn from the tail vein every 6th day, percent K562 cells determined and percent leukemia growth index (LGI) calculated.
Nude mice (nu/nu) were implanted with K562 cells (1x10^6) via tail vein. Four mice were used per group and divided into 4 groups. Three groups were implanted with K562 cells and one group was used as normal controls. Group 2 was inoculated with K562 cells and served as untreated positive controls.
Mice were injected via an intraperitoneal route at the above-mentioned dosage. Average weight of nude mice was determined to be 30±3g, and the dosage per mouse was calculated to be 300±30µg/mouse. Three micro liters of the stock solutions was diluted to 100µl with sterile water just prior to ip injections. Ip injections were carried out daily from day 15 post implantation to day 48 with a total of 33 injections.
Leukemia growth index was determined using the formula LGI (%) = (Vc-Vt)/Vc x 100%. Vc is mean blast cell number (K562) per ml of blood in control animals at a certain time of measurement, and Vt is mean blast cell number per ml of blood in test animals at a certain time of measurement. […]

[2] = test system: 4910, 5310 and U87 glioma cells and MDAMB231 and ZR71 breast cancer cells; experiment: Western blot analysis for pAKT and pERK (cell line not specified); format: cell-based; details: with and without radiation
Protocol: as §1

5310 = experiment: Matrigel invasion assay (modified Boyden chamber), 5310; format: cell-based; details: cells treated 48 h
Protocol: as §2, §3

## Cc1ccc(NC(=O)c2cc(C(F)(F)F)cc(C(F)(F)F)c2)cc1Nc1nccc(-c2cccnc2)n1 [AN019, (3,5-bis trifluoromethyl)-N-[4-methyl-3-(4-pyridin-3yl-pyrimidin-2ylamino)-phenyl]-benzamide]
5310 cells
  AKT expression levels: decrease in AKT expression levels
5310 cells; without and after radiation
  Levels of PI3k: almost undetectable in AN019 treated cells without radiation but reappeared after radiation treatment
[1]; with radiation (5Gy/week)
  intracranial tumours (size, appearance): tumor size was significantly reduced
[1]; with radiation (5Gy/week), terminated at day 40
  animals cured / no observable intracranial tumor: 6 of 10 animals
[1]; without radiation
  intracranial tumours (size, appearance): showed tumours similar to AN024 treated animals
[1]; without radiation, treatment from ten days after implantation, terminated at day 40
  animals cured / complete absence of intracranial tumours: 6 of 10 animals
ZR71; ZR71 (cell line by context), with and without radiation
  PI3k levels: absent in AN019 treatments both with and without radiation
ZR71; ZR71, unirradiated and after radiation
  AKT levels: decrease in AKT levels, which was enhanced after radiation
Baf3T315I
  blast cell count in blood smears: significant decrease in blast cell count
U87; U87, with radiation
  +Radiation % Invasion: 18%
U87; U87, without radiation
  -Radiation % Invasion: 18%
MDA-MB-231; MDA-MB-231, with radiation
  +Radiation % Invasion: 15%
MDA-MB-231; MDA-MB-231, without radiation
  -Radiation % Invasion: 45%
K562 cells; K562 implanted nude mice, ip 10mg/kg
  physiological, phenotypic or behavioral abnormality: no abnormal physiological, phenotypic or behavioral abnormality
K562 cells; daily ip injections of 10mg/kg from day 15, blood drawn every 6th day
  LGI after initiation of drug treatment (time course): steady decline in LGI
[2]
  levels of pERK: reduced significantly
5310; 5310, with radiation
  +Radiation % Invasion: 6%
5310; 5310, without radiation
  -Radiation % Invasion: 5%
